# Measured values reported in patent publication US8410126B2, “Pyrimidine inhibitors of PKTK2” (Boehringer Ingelheim International GmbH, priority 2009, dated 2013).
# pIC50: −log10 of the molar value.
# Biological target: T1, PTK2 (Homo sapiens, UniProt Q05397)
# T1 construct: purchased Invitrogen PV3832
# Test: PTK2 enzyme test Assay 1 (DELFIA, poly-Glu-Tyr substrate, PT60 antibody)
# Type: biochemical
# Conditions: Assay 1 (values without *); 1 h pre-incubation, 50 μM ATP mix, final DMSO 2%
# Procedure: This test uses active PTK2 enzyme (Invitrogen Code PV3832) and poly-Glu-Tyr (4:1, Sigma P-0275) as the kinase substrate. The kinase activity is detected through the phosphorylation of the substrate in a DELFIA™ assay. The phosphorylated substrate is detected with the europium-labelled phosphotyrosine antibody PT60 (Perkin Elmer, No.: AD00400).
# In order to determine concentration-activity curves with PTK2-inhibitors the compounds are serially diluted in 10% DMSO/H2O and 10 μL of each dilution are placed in each well of a 96-well microtitre plate (clear plate with a U-shaped base, Greiner No. 650101) (the inhibitors are tested in duplicates) and mixed with 10 μL/well of PTK2 kinase (0.01 μg/well). PTK2 kinase has been correspondingly diluted beforehand with kinase dilution buffer (20 mM TRIS/HCl pH 7.5, 0.1 mM EDTA, 0.1 mM EGTA, 0.286 mM sodium orthovanadate, 10% glycerol with the addition of freshly prepared BSA (fraction V, 1 mg/mL) and DTT (1 mM)). The test compound and the PTK2 kinase are pre-incubated for 1 h at RT and shaken at 500 revolutions per min. The reaction is started by the addition of 10 μL/well poly (Glu,Tyr) substrate (25 μg/well poly (Glu, Tyr), 0.05 μg/well biotinylated poly (Glu,Tyr) dissolved in 250 mM TRIS/HCl pH 7.5, 9 mM DTT)—the final concentration of DMSO is 2%. Then 20 μL of ATP Mix (30 mM TRIS/HCl pH 7.5, 0.02% Brij, 0.2 mM sodium orthovanadate, 10 mM magnesium acetate, 0.1 mM EGTA, 1× phosphatase inhibitor cocktail 1 (Sigma, No.: P2850), 50 μM ATP (Sigma, No.: A3377; 15 mM stock solution)) are added. After 1 h of kinase reaction (the plates are shaken at 500 rpm), the reaction is stopped by the addition of 12 μL/well 100 mM EDTA, pH 8.0 and shaken for a further 5 min at RT (500 rpm). 55 μL of the reaction mixture are transferred into a streptavidin plate (Strepta Well High Bind (transparent, 96-well) made by Roche, No.: 11989685001) and incubated for 1 h at RT (shaking at 500 rpm). Then the microtitre plate is washed three times with 200 μL/well D-PBS (Invitrogen, No. 14190). 100 μL of a solution containing DELFIA Eu-N1 Anti-Phosphotyrosine PT60 antibody (Perkin Elmer, No.: AD0040, diluted 1:2000 in DELFIA test buffer (Perkin Elmer, No.: 1244-111)) is then added and the mixture is incubated for 1 h at RT (shaking at 500 rpm). Then the plate is washed three times with 200 μL/well DELFIA washing buffer (Perkin Elmer, No.: 1244-114), 200 μL/well strengthening solution (Perkin Elmer, No.: 1244-105) are added and the mixture is incubated for 10 min at RT (shaking at 300 rpm).
# The time-delayed europium fluorescence is then measured in a microtitre plate reader (VICTOR^3, Perkin Elmer). […] Wells that contain test buffer instead of enzyme are used as a control of the background kinase activity.
# The IC50 values are determined from analyses of the concentration activity by iterative calculation with the aid of a sigmoid curve analysis algorithm (FIFTY, based on GraphPAD Prism Version 3.03) with a variable Hill coefficient.
# T1 sequence (Q05397 whole entry): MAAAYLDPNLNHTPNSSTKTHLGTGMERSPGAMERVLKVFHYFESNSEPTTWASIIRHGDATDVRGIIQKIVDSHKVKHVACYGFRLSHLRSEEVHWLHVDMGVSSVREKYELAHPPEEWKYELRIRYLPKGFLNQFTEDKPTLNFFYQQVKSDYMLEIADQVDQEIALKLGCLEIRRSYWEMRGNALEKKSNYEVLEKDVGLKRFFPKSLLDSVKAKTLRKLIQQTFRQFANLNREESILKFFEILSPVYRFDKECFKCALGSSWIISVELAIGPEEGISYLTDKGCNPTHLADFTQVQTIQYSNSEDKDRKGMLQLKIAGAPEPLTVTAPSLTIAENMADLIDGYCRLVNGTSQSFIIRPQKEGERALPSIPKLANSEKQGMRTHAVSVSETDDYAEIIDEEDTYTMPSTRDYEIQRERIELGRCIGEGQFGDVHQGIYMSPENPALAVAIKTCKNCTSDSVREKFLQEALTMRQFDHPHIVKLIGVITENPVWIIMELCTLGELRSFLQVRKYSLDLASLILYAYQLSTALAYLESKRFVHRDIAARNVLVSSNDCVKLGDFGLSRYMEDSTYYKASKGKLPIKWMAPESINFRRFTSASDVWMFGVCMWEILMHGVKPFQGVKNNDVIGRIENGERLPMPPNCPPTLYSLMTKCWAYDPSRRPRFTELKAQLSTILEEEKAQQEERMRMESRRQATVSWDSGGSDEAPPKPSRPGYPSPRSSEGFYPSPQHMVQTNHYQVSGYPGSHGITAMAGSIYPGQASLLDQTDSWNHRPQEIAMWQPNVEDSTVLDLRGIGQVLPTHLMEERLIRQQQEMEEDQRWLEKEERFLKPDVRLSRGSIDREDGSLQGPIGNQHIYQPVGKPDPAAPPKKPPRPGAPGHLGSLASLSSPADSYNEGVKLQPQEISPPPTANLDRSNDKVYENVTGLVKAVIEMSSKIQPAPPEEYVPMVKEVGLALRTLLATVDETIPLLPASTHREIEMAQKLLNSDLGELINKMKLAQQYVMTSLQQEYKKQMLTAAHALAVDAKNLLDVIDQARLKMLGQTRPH
row,Compound,pIC50
1,CNC(=O)c1ccc(Nc2ncc(C(F)(F)F)c(N[C@@H]3c4ccccc4C[C@H]3NS(C)(=O)=O)n2)c(OC)c1 [Example I-95],8.22
2,COc1cc(C(=O)NCCN(C)C)c(Cl)cc1Nc1ncc(C(F)(F)F)c(N[C@@H]2Cc3ccccc3[C@H]2N(C)S(C)(=O)=O)n1 [Example I-58],8.40
3,COc1cc(N2CCN(C3COC3)CC2)ccc1Nc1ncc(C(F)(F)F)c(N[C@@H]2Cc3ccccc3[C@H]2N(C)S(C)(=O)=O)n1 [Example I-57],8.52
4,COc1cc(C(=O)NC2CCCN(C)C2)c(F)cc1Nc1ncc(C(F)(F)F)c(N[C@@H]2Cc3ccccc3[C@H]2N(C)S(C)(=O)=O)n1 (stereo partly shown) [Example I-47],8.52
5,CNC(=O)c1cc(OC)c(Nc2ncc(C(F)(F)F)c(N[C@@H]3Cc4ccccc4[C@H]3N(C)S(C)(=O)=O)n2)cc1F [Example I-49],8.22
6,COc1cc(C(=O)NC2CCC(N3CCN(CC4CC4)CC3)CC2)c(F)cc1Nc1ncc(C(F)(F)F)c(N[C@@H]2Cc3ccccc3[C@H]2N(C)S(C)(=O)=O)n1 (stereo partly shown) [Example I-51],8.40
7,COCCNC(=O)c1ccc(Nc2ncc(C(F)(F)F)c(N[C@@H]3Cc4ccccc4[C@H]3N(C)S(C)(=O)=O)n2)c(OC)c1 [Example I-45],8.70
8,COc1nc(C)ccc1Nc1ncc(C(F)(F)F)c(N[C@@H]2Cc3ccccc3[C@H]2N(C)S(C)(=O)=O)n1 [Example I-96],7.96
9,CNC(=O)c1ccc(Nc2ncc(Cl)c(N[C@@H]3Cc4ccccc4[C@H]3N(C)S(C)(=O)=O)n2)c(OC)c1 [Example I-34],8.15
10,CCN1CCC(NC(=O)c2ccc(Nc3ncc(C(F)(F)F)c(N[C@@H]4Cc5ccccc5[C@H]4NC(C)=O)n3)c(OC)c2)CC1 [Example I-11],8.70
11,COc1cc(C(=O)NC2CCN(C)CC2)ccc1Nc1ncc(C(F)(F)F)c(N[C@@H]2Cc3ccccc3[C@H]2NC(C)=O)n1 [Example I-1],8.70
12,COc1cc(NC(C)=O)ccc1Nc1ncc(C(F)(F)F)c(N[C@@H]2Cc3ccccc3[C@H]2N(C)S(C)(=O)=O)n1 [Example I-90],8.52
13,"COc1cc(C(=O)NCCN(C)C)ccc1Nc1ncc(C(F)(F)F)c(N[C@@H]2Cc3ccccc3[C@H]2NS(C)(=O)=O)n1 [Example I-3, N-(2-dimethylamino-ethyl)-4-[4-((1R,2R)-1-methanesulphonylamino-indan-2-ylamino)-5-trifluoromethyl-pyrimidin-2-ylamino]-3-methoxy-benzamide]",8.70

# Further molecules by rising pIC50, results first:
row,pIC50,Compound
1,8.70,"COc1cc(C(=O)NC2CCN(C)CC2)ccc1Nc1ncc(C(F)(F)F)c(N[C@@H]2Cc3ccccc3[C@H]2N(C)S(C)(=O)=O)n1 [Example I-5, 4-{4-[(1R,2R)-1-(methanesulphonyl-methyl-amino)-indan-2-ylamino]-5-trifluoromethyl-pyrimidin-2-ylamino}-3-methoxy-N-(1-methyl-piperidin-4-yl)-benzamide]"
2,8.70,"COc1cc(C(=O)NC2CCN(C)CC2)c(F)cc1Nc1ncc(C(F)(F)F)c(N[C@@H]2Cc3ccccc3[C@H]2N(C)S(C)(=O)=O)n1 [Example I-46, 2-fluoro-4-{4-[(1R,2R)-1-(methanesulphonyl-methyl-amino)-indan-2-ylamino]-5-trifluoromethyl-pyrimidin-2-ylamino}-5-methoxy-N-(1-methyl-piperidin-4-yl)-benzamide]"
3,8.70,CNC(=O)c1ccc(Nc2ncc(C(F)(F)F)c(N[C@@H]3Cc4ccccc4[C@H]3NS(C)(=O)=O)n2)c(OC)c1 [Example I-10]
4,8.70,COc1cc(N2CCN(C)CC2)ccc1Nc1ncc(C(F)(F)F)c(N[C@@H]2Cc3ccccc3[C@H]2NC(C)=O)n1 [Example I-26]
5,8.70,COc1cc(C(=O)NCCN(C)C)c(C)cc1Nc1ncc(Cl)c(N[C@@H]2Cc3ccccc3[C@H]2N(C)S(C)(=O)=O)n1 [Example I-97]
6,9.00,COc1cc(C(=O)NC2CCN(C)CC2)c(C)cc1Nc1ncc(C(F)(F)F)c(N[C@@H]2Cc3ccccc3[C@H]2N(C)S(C)(=O)=O)n1 [Example I-53]
7,9.00,"COc1cc(C(=O)NC2CCN(C)CC2)c(Cl)cc1Nc1ncc(C(F)(F)F)c(N[C@@H]2Cc3ccccc3[C@H]2N(C)S(C)(=O)=O)n1 [Example I-60, 2-chloro-4-{4-[(1R,2R)-1-(methanesulphonyl-methyl-amino)-indan-2-ylamino]-5-trifluoromethyl-pyrimidin-2-ylamino}-5-methoxy-N-(1-methyl-piperidin-4-yl)-benzamide]"
8,9.00,"COc1cc(C(=O)NC2CCN(C)CC2)ccc1Nc1ncc(Br)c(N[C@@H]2Cc3ccccc3[C@H]2N(C)S(C)(=O)=O)n1 [Example I-98, 4-{5-bromo-4-[(1R,2R)-1-(methanesulphonyl-methyl-amino)-indan-2-ylamino]-pyrimidin-2-ylamino}-3-methoxy-N-(1-methyl-piperidin-4-yl)-benzamide]"
9,9.00,"CNCc1ccc(Nc2ncc(C(F)(F)F)c(N[C@@H]3Cc4ccccc4[C@H]3N(C)S(C)(=O)=O)n2)c(OC)c1 [Example I-71, N-{(1R,2R)-2-[2-(2-methoxy-4-methylaminomethyl-phenylamino)-5-trifluoromethyl-pyrimidin-4-ylamino]-indan-1-yl}-N-methyl-methanesulphonamide]"
10,9.00,COCCN1CCN(c2ccc(Nc3ncc(C(F)(F)F)c(N[C@@H]4Cc5ccccc5[C@H]4N(C)S(C)(=O)=O)n3)c(OC)c2)CC1 [Example I-84]
11,9.00,COc1cc(C(=O)NC2CCN(C)CC2)c(C)cc1Nc1ncc(Cl)c(N[C@@H]2Cc3ccccc3[C@H]2N(C)S(C)(=O)=O)n1 [Example I-68]
12,9.00,COCCN1CCC(NC(=O)c2ccc(Nc3ncc(C(F)(F)F)c(N[C@@H]4Cc5ccccc5[C@H]4N(C)S(C)(=O)=O)n3)c(OC)c2)CC1 [Example I-65]
13,9.01,"COc1cc(N2CCNCC2)ccc1Nc1ncc(C(F)(F)F)c(N[C@@H]2Cc3ccccc3[C@H]2N(C)S(C)(=O)=O)n1 [Example I-70, N-{(1R,2R)-2-[2-(2-methoxy-4-piperazin-1-yl-phenylamino)-5-trifluoromethyl-pyrimidin-4-ylamino]-indan-1-yl}-N-methyl-methanesulphonamide]"
14,9.08,COc1cc(C(=O)NCCN(C)C)c(C)cc1Nc1ncc(C(F)(F)F)c(N[C@@H]2Cc3ccccc3[C@H]2N(C)S(C)(=O)=O)n1 [Example I-54]
15,9.08,COc1cc(C(=O)NOCCN(C)C)ccc1Nc1ncc(C(F)(F)F)c(N[C@@H]2Cc3ccccc3[C@H]2N(C)S(C)(=O)=O)n1 [Example I-59]
